In turn, `CCCCCCCCC(CCCC)c1ccccc1` (configuration not stated) came in with a logP of 8.56. As to `CCCCCCCCCC(CC)c1ccccc1` (configuration not stated), the logP was found to be 8.1. The result for `CCCCCCCC(CCC)c1ccccc1` (configuration not stated) reads 7.59. With `CCCCCCC(CCCCC)c1ccccc1` (configuration not stated), the lipophilicity (logP) stood at 8.01. Next, `CCCCCCCCCC(C)c1ccccc1` (configuration not stated): 7.63; `CCCCCCCC(CCCC)c1ccccc1` (configuration not stated): 8.01; `CCCCCCCCCCCCCc1ccccc1`: 9.36.

Take `CCCCCCCCCC(CCC)c1ccccc1` (configuration not stated): the log partition coefficient (logP) turned out to be 8.62. Next, `CCCCCCCCC(CC)c1ccccc1` (configuration not stated): 7.53; `CCCCCCCCCCCc1ccccc1`: 8.14. Turning to `CCCCCCCCCCCC(C)c1ccccc1` (configuration not stated), the logP was 8.77.

`CCCCCCCCCC(CCCC)c1ccccc1` (configuration not stated) had a logP of 9.16.

`CCCCCCCC(CC)c1ccccc1` (configuration not stated): the log partition coefficient (logP) came to 7. The result for `CCCCCCCCCCCCC(C)c1ccccc1` (configuration not stated) reads 9.29. The result for `CCCCCCCC(CCCCC)c1ccccc1` (configuration not stated) reads 8.56. In turn, `CCCCCCCCC(CCC)c1ccccc1` (configuration not stated) showed a lipophilicity (logP) of 8.07.

As for `CCCCCCC(CCC)c1ccccc1` (configuration not stated), the logP was determined as 7.

On to `CCCCCC(CCCC)c1ccccc1` (configuration not stated), for which the logP came to 6.9. Next, `CCCCCCCCC(C)c1ccccc1` (configuration not stated): 7.06. In turn, `CCCCCCC(CCCC)c1ccccc1` (configuration not stated) yielded a lipophilicity (logP) of 7.45. The result for `CCCCCC(CCCCC)c1ccccc1` reads 7.45; that for `CCCCCCCCCCCC(CC)c1ccccc1` (configuration not stated), 9.29. Take `CCCCCCCCCCCCc1ccccc1`: the log partition coefficient (logP) stood at 8.65.

`CCCCCCCCCCC(CCC)c1ccccc1` (configuration not stated) yielded a logP of 9.25. The compound `CCCCCCCCCCC(CC)c1ccccc1` (configuration not stated) registered a log partition coefficient (logP) of 8.65. `CCCCCCCCCCC(C)c1ccccc1` (configuration not stated) displayed a logP of 8.19.

In turn, `CCCCCCCCC(CCCCC)c1ccccc1` (configuration not stated) came in with a logP of 9.16.

In general, logP refers to the decadic logarithm of the partition coefficient of the neutral form, usually between octanol and water.

Source of the values: the OPERA property sets (Mansouri et al. 2018).
